For 28 molecules, IC50 and EC50 results are on record in US6608027B1, “Macrocyclic peptides active against the hepatitis C virus” (Boehringer Ingelheim (Canada) Ltd, priority 1999, dated 2003).

Usually IC50 stands for the concentration needed to halve the response being measured. The EC50 is the concentration needed to bring the measured effect to its halfway point.

Each structure is given as a SMILES string. Where only a bound is given, the exact number is not on record here.

The target in one assay is T1, His-NS3-NS4AFL (full-length NS3-NS4A protein complex) (Hepatitis C virus genotype 1b, UniProt P26663).
T1 construct: made in house; host or cells: Sf21 insect cells, recombinant baculovirus (Bac-to-Bac, pFastBac HTa)
T1 sequence (P26663 1658-1711): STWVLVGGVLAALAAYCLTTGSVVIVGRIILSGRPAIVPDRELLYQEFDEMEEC
T1 sequence (P26663 1027-1657): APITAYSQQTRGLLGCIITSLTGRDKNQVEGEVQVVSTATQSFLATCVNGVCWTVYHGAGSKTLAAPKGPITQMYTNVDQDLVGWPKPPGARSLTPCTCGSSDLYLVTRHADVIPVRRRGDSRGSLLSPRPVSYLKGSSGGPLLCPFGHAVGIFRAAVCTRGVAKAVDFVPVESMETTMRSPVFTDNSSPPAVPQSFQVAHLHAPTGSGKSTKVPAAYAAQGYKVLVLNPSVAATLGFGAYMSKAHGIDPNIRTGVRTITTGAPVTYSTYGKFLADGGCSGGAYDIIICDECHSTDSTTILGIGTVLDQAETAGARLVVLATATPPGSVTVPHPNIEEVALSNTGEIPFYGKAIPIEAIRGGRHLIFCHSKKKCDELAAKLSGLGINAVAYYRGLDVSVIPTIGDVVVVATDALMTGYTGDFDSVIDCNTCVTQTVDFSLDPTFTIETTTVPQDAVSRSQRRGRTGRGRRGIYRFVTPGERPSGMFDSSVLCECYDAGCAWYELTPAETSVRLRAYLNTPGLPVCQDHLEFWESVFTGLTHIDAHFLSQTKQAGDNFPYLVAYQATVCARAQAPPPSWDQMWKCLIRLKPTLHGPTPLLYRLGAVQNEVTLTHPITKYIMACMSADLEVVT
Description: Full-length NS3-NS4A heterodimer protein fluorogenic assay. It is filed as biochemical, HCV genotype 1b.
Conditions: not given
An excerpt:
The NS2-NS5B-3′non coding region was cloned by RT-PCR into the pCR®3 vector (Invitrogen) using RNA extracted from the serum of an HCV genotype 1b infected individual (provided by Dr. Bernard Willems, Hôpital St-Luc, Montréal, Québec, Canada). The NS3-NS4A region (NS3-NS4AFL) was then subcloned by PCR into the pFastBac™ HTa baculovirus expression vector (Gibco/BRL). The vector sequence includes a region encoding a 28-residue N-terminal sequence which contains a hexahistidine tag. The Bac-to-Bac™ baculovirus expression system (Gibco/BRL) was used to produce the recombinant baculovirus. His-NS3-NS4AFL was expressed by infecting 10^6 Sf21 cells/mL with the recombinant baculovirus at a multiplicity of infection of 0.1-0.2 at 27°. Authentic auto-proteolysis occurs during expression to produce a non covalent and stable NS3-NS4A protein complex (referred to as full-length “FL”). The infected culture was harvested 48 to 64 h later by centrifugation at 4°. The cell pellet was homogenized in 50 mM NaPO4, pH 7.5, 40% glycerol (w/v), 2 mM β-mercaptoethanol, in presence of a cocktail of protease inhibitors. His-NS3-NS4AFL was then extracted from the cell lysate with 1.5% NP-40, 0.5% Triton X-100, 0.5M NaCl, and a DNase treatment. After ultracentrifugation, the soluble extract was diluted 4-fold and bound on a Pharmacia Hi-Trap Ni-chelating column. The His-NS3-NS4AFL was eluted in a >90% pure form (as judged by SDS-PAGE), using a 50 to 400 mM imidazole gradient. The His-NS3-NS4AFL was stored at −80° in 50 mM sodium phosphate, pH 7.5, 10% (w/v) glycerol, 0.5 M NaCl, 0.25 M imidazole, 0.1% NP-40. It was thawed on ice and diluted just prior to use.
The protease activity of His-NS3-NS4AFL was assayed in 50 mM Tris-HCl, pH 8.0, 0.25 M sodium citrate, 0.01% (w/v) n-dodecyl-β-D-maltoside, 1 mM TCEP. Five (5) μM of the internally quenched substrate anthranilyl-DDIVPAbu[C(O)—O]-AMY(3-NO2)TW-OH (SEQ. ID NO.: 1) in presence of various concentrations of inhibitor were incubated with 1.5 nM of His-NS3-NS4AFL for 45 min at 23°. […] The reaction was terminated with the addition of 1M MES, pH 5.8. Fluorescence of the N-terminal product was monitored on a Perkin-Elmer LS-50B fluorometer equipped with a 96-well plate reader (excitation wavelength: 325 nm, emission wavelength: 423 nm).
The % inhibition was calculated with the following equation:
100−[(fluoinh−fluoblank)/(fluoctl−fluoblank)×100]
A non-linear curve fit with the Hill model was applied to the inhibition-concentration data, and the 50% effective concentration (IC50) was calculated by the use of SAS software (Statistical Software System; SAS Institute, Inc. Cary, N.C.).
`COc1ccc2c(O[C@@H]3C[C@H]4C(=O)N[C@]5(C(=O)O)C[C@H]5/C=C\CCC(O)CC[C@H](NC(=O)OC(C)(C)C)C(=O)N4C3)cc(-c3ccccc3)nc2c1` (mixture of isomers) [Compound 217] registered an IC50 below 0.1 µM. The molecule `COc1ccc2c(O[C@@H]3C[C@H]4C(=O)N[C@]5(C(=O)O)C[C@H]5/C=C\CCCCCC(O)C(=O)N4C3)ccnc2c1` (single isomer, unassigned) [Compound 213] had an IC50 of 0.1 to 1 µM. As for `CC(C)(C)OC(=O)N[C@H]1CCC/C=C/CC[C@@H]2C[C@@]2(C(=O)O)NC(=O)[C@@H]2CC(Oc3ccnc4ccccc34)CN2C1=O` (stereo partly shown) [Compound 202], the IC50 was in the range of 0.1 to 1 µM. The molecule `CC(=O)N[C@H]1CCC/C=C/CC[C@@H]2C[C@@]2(C(=O)O)NC(=O)[C@@H]2CC(Oc3ccnc4ccccc34)CN2C1=O` (stereo partly shown) [Compound 203] came in with an IC50 above 1 µM. Molecule `CC(C)(C)OC(=O)N[C@H]1CCCC(O)C(O)CC[C@@H]2C[C@@]2(C(=O)O)NC(=O)[C@@H]2CC(Oc3ccnc4ccccc34)CN2C1=O` (stereo partly shown) [Compound 205] displayed an IC50 of 0.1 to 1 µM.

`CC(C)(C)OC(=O)N[C@H]1CCCCC/C=C\[C@@H]2C[C@@]2(C(=O)O)NC(=O)[C@@H]2C[C@@H](Oc3ccnc4ccccc34)CN2C1=O` [Compound 206] came in with an IC50 below 0.1 µM. Molecule `COc1ccc2c(O[C@@H]3C[C@H]4C(=O)N[C@]5(C(=O)O)C[C@H]5/C=C\CCCCC[C@H](NC(=O)OC(C)(C)C)C(=O)N4C3)ccnc2c1` [Compound 207] yielded an IC50 below 0.1 µM. On the same count and under the same terms, under `COc1ccc2c(O[C@@H]3C[C@H]4C(=O)N[C@]5(C(=O)O)C[C@H]5/C=C\CCCCC[C@H](NC(=O)OC(C)(C)C)C(=O)N4C3)cc(-c3ccccc3)nc2c1` [Compound 208] stands below 0.1 µM. For `COc1ccc2c(O[C@@H]3C[C@H]4C(=O)N[C@]5(C(=O)O)CC5/C=C\CCCCC[C@H](NC(=O)NC(C)(C)C)C(=O)N4C3)cc(-c3ccccc3)nc2c1` (stereo partly shown) [Compound 209], the IC50 is below 0.1 µM. In turn, `COc1ccc2c(O[C@@H]3C[C@H]4C(=O)N[C@]5(C(=O)O)C[C@H]5/C=C\CCCCC[C@H](N)C(=O)N4C3)cc(-c3ccccc3)nc2c1` [Compound 211] displayed an IC50 below 0.1 µM.

Turning to `COc1ccc2c(O[C@@H]3C[C@H]4C(=O)N[C@]5(C(=O)O)C[C@H]5CCCCCCC[C@H](NC(=O)OC(C)(C)C)C(=O)N4C3)cc(-c3ccccc3)nc2c1` [Compound 215], the IC50 was below 0.1 µM. The same measure, in the same setting: under `COc1ccc2c(O[C@@H]3C[C@H]4C(=O)N[C@]5(C(=O)O)C[C@H]5CCCCCCC[C@H](NC(C)=O)C(=O)N4C3)cc(-c3ccccc3)nc2c1` [Compound 219] stands below 0.1 µM; under `COc1ccc2c(O[C@@H]3C[C@H]4C(=O)N[C@]5(C(=O)O)C[C@@H]5/C=C\CCCCC[C@H](NC(=O)OC(C)(C)C)C(=O)N4C3)cc(-c3nccs3)nc2c1` [Compound 220], below 0.1 µM.

The assay is the same for the next values; noted with them: fluorogenic assay of Example 48; no asterisk; read-out: enzyme activity (IC50 grade).
On to `CC(C)(C)OC(=O)N[C@H]1CCCCCC=CCCC2CC2(C(=O)O)NC(=O)[C@@H]2C[C@@H](Oc3ccnc4ccccc34)CN2C1=O` (single isomer, unassigned) [Compound 301], for which the IC50 lay in the range of 0.1 to 1 µM. Same read-out and setting: under `COc1ccc2c(O[C@@H]3C[C@H]4C(=O)N[C@]5(C(=O)O)C[C@@H]5/C=C/CCC[C@H](NC(=O)OC(C)(C)C)C(=O)N4C3)cc(-c3ccccc3)nc2c1` [Compound 302] stands above 1 µM; under `COc1ccc2c(O[C@@H]3C[C@H]4C(=O)N[C@]5(C(=O)O)C[C@@H]5/C=C/COCCC[C@H](NC(=O)OC(C)(C)C)C(=O)N4C3)cc(-c3ccccc3)nc2c1` [Compound 303], 0.1 to 1 µM; under `COc1ccc2c(O[C@@H]3C[C@H]4C(=O)N[C@]5(C(=O)O)C[C@H]5C=CCCCC=CC[C@H](NC(=O)OC(C)(C)C)C(=O)N4C3)cc(-c3ccccc3)nc2c1` [Compound 304], below 0.1 µM. Same read-out and setting: under `COc1ccc2c(O[C@@H]3C[C@H]4C(=O)N[C@]5(C(=O)O)C[C@H]5/C=C\COCCC[C@H](O)C(=O)N4C3)cc(-c3ccccc3)nc2c1` [Compound 305] stands 0.1 to 1 µM; under `COc1ccc2c(O[C@@H]3C[C@H]4C(=O)N[C@]5(C(=O)O)C[C@H]5/C=C\CCCCCC[C@H](NC(=O)OC(C)(C)C)C(=O)N4C3)cc(-c3csc(NC(C)=O)n3)nc2c1` [Compound 307], below 0.1 µM. Take `CCOc1cc(O[C@@H]2C[C@H]3C(=O)N[C@]4(C(=O)O)C[C@H]4/C=C\CCCCC[C@H](NC(C)=O)C(=O)N3C2)c2ccc(OC)cc2n1` [Compound 308]: the IC50 was below 0.1 µM. Take `COc1ccc2c(O[C@@H]3C[C@H]4C(=O)N[C@]5(C(=O)O)C[C@H]5CC/C=C/CCC[C@H](NC(=O)OC(C)(C)C)C(=O)N4C3)cc(-c3ccccc3)nc2c1` [Compound 401]: the IC50 was below 0.1 µM. The same measure, in the same setting: under `COc1ccc2c(OC3CC4C(=O)NC5(C(=O)O)CC5CCC=CCCCC(NC(=O)OC(C)(C)C)C(=O)N4C3)cc(-c3ccccc3)nc2c1` (stereo not shown) [Compound 402] stands 0.1 to 1 µM.

The target of the next assay is T2, NS3 protease (Hepatitis C virus genotype 1b, UniProt P26663).
T2 construct: expressed in transfected cells; host or cells: Huh-7 human hepatoma cells, transient co-transfection (CMV promoter)
T2 sequence (P26663 1658-1711): as the sequence (P26663 1658-1711) above
T2 sequence (P26663 1027-1657): as the sequence (P26663 1027-1657) above
Description: NS3 protease cell-based assay (SEAP reporter, Huh-7 cells). More on the design: species or system HCV. Conditions: SEAP activity, 24-hour incubation, read-out: cell. act. (EC50 code). The text has this:
This assay is done with Huh-7 cells, a human cell line derived from a hepatoma, co-transfected with 2 DNA constructs: one (called NS3) expressing part of the HCV non-structural polyprotein fused to the tTA protein through an NS5A-NS5B cleavage site in the following order: NS3-NS4A-NS4B-NS5A-(NS5B)tTA where (NS5B) represents the 6 first amino acids of NS5
B. This polyprotein is expressed under the control of the CMV promoter, the other (called SEAP) expressing the reporter protein, secreted alkaline phosphatase (SEAP), under the regulation of a tTA-responsive promoter. The first construct leads to the expression of a polyprotein from which the different mature proteins are released through cleavage by the NS3 protease. It is believed that the mature viral proteins forms a complex at the membrane of the endoplasmic reticulum. tTA is a fusion protein, described by Gossen and Bujard (Proc. Natl. Acad. Sci. USA 89 (1992): 5547-5551), which contains a DNA-binding domain and a transcriptional activator. Release of the tTA protein requires an NS3-dependent cleavage at the NS5A-NS5B cleavage site between NS5A and itself. This last cleavage allows tTA to migrate to the nucleus and transactivate the SEAP gene. Therefore, reduction of NS3 proteolytic activity leads to confinement of tTA to the cytoplasm and concomitant decrease in SEAP activity.
To control for cellular activities other than inhibition of NS3 protease which are due to the compound, a parallel co-transfection is done with a construct expressing tTA alone and the same reporter construct such that SEAP activity is independent of the NS3 protease.
Protocol of the assay: Huh-7 cells, grown in CHO-SFMII (Life Technologies)+10% FCS (fetal calf serum) were co-transfected with the two DNA constructs in the following proportions: 7 μg NS3+500 ng SEAP+[…] FuGENE (Boehringer Mannheim) per 4×10^6 Huh-7 cells. After 5 hours at 37° C., the cells were washed, trypsinized and plated (at 80 000 cells/well) in 96-well plates containing a range of concentrations of the compounds to be tested. After a 24-hour incubation period, the SEAP activity in the medium was measured with the Phospha-Light kit (Tropix).
Analysis of the percent inhibition of SEAP activity with respect to compound concentration was performed with the SAS software to obtain the EC50.
With `COc1ccc2c(O[C@@H]3C[C@H]4C(=O)N[C@]5(C(=O)O)CC5CCCCCCC[C@H](NC(=O)OC5CCCC5)C(=O)N4C3)cc(-c3nc(C(C)C)cs3)nc2c1` (stereo partly shown) [Compound 906], the EC50 was at most 1 µM. Take `COc1ccc2c(O[C@@H]3C[C@H]4C(=O)N[C@]5(C(=O)O)CC5CCCCCCC[C@H](NC(=O)OC5CCCC5)C(=O)N4C3)cc(-n3cccc3)nc2c1` (stereo partly shown) [Compound 907]: the EC50 is at most 1 µM. As to `COc1ccc2c(O[C@@H]3C[C@H]4C(=O)N[C@]5(C(=O)O)CC5CCCCCCC[C@H](NC(=O)OC5CCCC5)C(=O)N4C3)cc(-c3csc(N)n3)nc2c1` (stereo partly shown) [Compound 908], the EC50 was at most 1 µM.

On to `COc1ccc2c(O[C@@H]3C[C@H]4C(=O)N[C@]5(C(=O)O)CC5CCCCCCC[C@H](NC(=O)OC5CCCC5)C(=O)N4C3)cc(-c3csc(NC(C)=O)n3)nc2c1` (stereo partly shown) [Compound 909], for which the EC50 is at most 1 µM. Consider `CCNc1nc(-c2cc(O[C@@H]3C[C@H]4C(=O)N[C@]5(C(=O)O)CC5CCCCCCC[C@H](NC(=O)OC5CCCC5)C(=O)N4C3)c3ccc(OC)cc3n2)cs1` (stereo partly shown) [Compound 910], for which the EC50 is at most 1 µM. The same measure, in the same setting: under `COc1ccc2c(O[C@@H]3C[C@H]4C(=O)N[C@]5(C(=O)O)CC5CCCCCCC[C@H](NC(=O)OC5CCCC5)C(=O)N4C3)cc(-c3csc(NC(C)C)n3)nc2c1` (stereo partly shown) [Compound 911] stands at most 1 µM.
